Results on five molecules are retold here after patent US20210221866A1, “PROTEASE-RESISTANT LIPIDATED GLP-1 ANALOGS” (MEDIMMUNE LIMITED, priority 2015, published 2021).

What all share (assay type): cell-based
Test [1] has as its target T1, human GLP-1 receptor (GLP-1R) (Homo sapiens, UniProt P43220).
T1 construct: expressed in transfected cells; host or cells: HEK293 cells or CHO cells
The experiment in a line: cAMP assay, human GLP-1R cells. In short, it runs like this:
(§1)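 Peptide-stimulated cAMP measured by two-step HTRF after a 30 min room-temperature incubation with receptor-expressing cells (hGLP-1R, hGIPR at 1×10^5 cells/ml; hGCGR at 2×10^5 cells/ml). Duplicate dilutions; EC50 from 4-parameter logistic fit of % Delta F.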
In general terms: Cyclic AMP is a second messenger, typically raised through Gs and lowered through Gi signalling.

For test [2], the target named is T2, human glucose-dependent insulinotropic peptide receptor (GIPR) (Homo sapiens, UniProt P48546).
T2 construct: expressed in transfected cells; host or cells: HEK293 cells or CHO cells
T2 sequence (P48546 22-466): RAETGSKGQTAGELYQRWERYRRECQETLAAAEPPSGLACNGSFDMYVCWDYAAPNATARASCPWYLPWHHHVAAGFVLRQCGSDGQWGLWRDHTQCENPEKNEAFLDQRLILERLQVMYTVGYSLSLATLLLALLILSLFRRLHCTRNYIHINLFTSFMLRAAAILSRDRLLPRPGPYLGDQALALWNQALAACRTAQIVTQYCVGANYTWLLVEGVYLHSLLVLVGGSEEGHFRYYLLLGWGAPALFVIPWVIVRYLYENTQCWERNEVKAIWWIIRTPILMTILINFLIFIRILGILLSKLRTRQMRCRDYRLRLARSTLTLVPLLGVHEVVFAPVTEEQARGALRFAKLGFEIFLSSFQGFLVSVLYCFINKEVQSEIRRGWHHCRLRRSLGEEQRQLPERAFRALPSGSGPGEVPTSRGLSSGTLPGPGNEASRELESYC
The experiment in a line: cAMP assay, human GIPR cells. To be noted: read-out: Primary assay EC50 GIP-R. In short, it runs like this: as §1

A further test addresses T3, GLP-1R (INS1e cells) (Rattus norvegicus, UniProt P32301).
T3 construct: endogenous in cells; host or cells: INS1e cells
T3 sequence (P32301 22-463): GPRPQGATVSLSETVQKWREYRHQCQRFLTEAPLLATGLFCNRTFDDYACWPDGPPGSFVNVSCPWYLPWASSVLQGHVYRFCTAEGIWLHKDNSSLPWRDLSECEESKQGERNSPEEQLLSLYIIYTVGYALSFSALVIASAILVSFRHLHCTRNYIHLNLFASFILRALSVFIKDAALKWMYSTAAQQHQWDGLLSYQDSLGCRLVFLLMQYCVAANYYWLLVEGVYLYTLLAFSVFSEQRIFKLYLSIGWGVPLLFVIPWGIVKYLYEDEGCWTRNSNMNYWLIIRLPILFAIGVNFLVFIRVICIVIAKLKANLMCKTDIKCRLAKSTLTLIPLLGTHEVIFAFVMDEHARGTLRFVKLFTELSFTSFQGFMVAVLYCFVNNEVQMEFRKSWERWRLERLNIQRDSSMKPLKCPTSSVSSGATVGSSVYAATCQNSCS
As to the kind of experiment: INS1e assay, cAMP activity at GLP-1R. As to conditions: Table 8, substituted and mono-lipidated peptides.

For test [3], the target named is T4, human glucagon receptor (GCGR) (Homo sapiens, UniProt P47871).
T4 construct: expressed in transfected cells; host or cells: HEK293 cells or CHO cells
The experiment in a line: cAMP assay, human GCGR cells. To be noted: read-out: Primary assay EC50 Gluc-R. In short, it runs like this:
as §1

[4] abbreviates: cAMP activity, first determination (n1), read-out: Primary assay EC50 GLP-1R n1.
Where [5] appears, read: cAMP activity, mean of n1 and n2, read-out: Mean pM GLP-1R.
Where [6] appears, read: cAMP activity, second determination (n2), read-out: Primary assay EC50 GLP-1R n2.
[7] abbreviates: cAMP activity, first determination (n1).
Where [8] appears, read: cAMP activity, second determination (n2).
Setting [9] is: mean of n1 and n2, read-out: INS1e assay EC50 Mean pM GLP-1R.
Where [10] appears, read: replicate n1, read-out: INS1e assay EC50 GLP-1R n1.
[11] abbreviates: replicate n2, read-out: INS1e assay EC50 GLP-1R n2.

Molecules are shown by their SMILES. Where two headings read alike, the source gives them in different places. Numbered stars: 1 amine (or outer) side, 2 acyl side, 3 side chain; on linkers, the order of the positions; unused ones are H or OH. Square brackets hold non-standard residues; d marks the D form. Side chains are listed from the residue outwards. Peptide text beside a SMILES is read from it. * marks the point of attachment. C18 diacid = O=C(O)CCCCCCCCCCCCCCCCC(=O)*; γGlu = O=C(O)[C@H](CCC(=O)[*:2])N[*:1]; αMeF = C[C@](N)(Cc1ccccc1)C(=O)O; αMeK = C[C@](N)(CCCCN)C(=O)O; αMeS = C[C@](N)(CO)C(=O)O; AEEA = NCCOCCOCC(=O)O; Aib = CC(C)(N)C(=O)O Where only a bound is given, the exact number is not on record here.

T1 sequence (P43220 24-463): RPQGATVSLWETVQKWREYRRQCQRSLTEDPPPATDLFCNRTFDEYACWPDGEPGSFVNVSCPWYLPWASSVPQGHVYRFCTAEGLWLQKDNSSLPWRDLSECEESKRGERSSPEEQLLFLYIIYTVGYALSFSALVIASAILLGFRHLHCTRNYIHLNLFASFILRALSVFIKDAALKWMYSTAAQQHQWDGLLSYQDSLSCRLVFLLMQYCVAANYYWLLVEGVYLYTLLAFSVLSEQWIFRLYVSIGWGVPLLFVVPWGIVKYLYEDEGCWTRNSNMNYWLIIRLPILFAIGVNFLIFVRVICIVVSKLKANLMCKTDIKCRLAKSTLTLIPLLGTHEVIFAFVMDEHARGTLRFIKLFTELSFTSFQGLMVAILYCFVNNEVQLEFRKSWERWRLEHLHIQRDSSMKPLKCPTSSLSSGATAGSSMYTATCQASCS
T4 sequence (P47871 26-477): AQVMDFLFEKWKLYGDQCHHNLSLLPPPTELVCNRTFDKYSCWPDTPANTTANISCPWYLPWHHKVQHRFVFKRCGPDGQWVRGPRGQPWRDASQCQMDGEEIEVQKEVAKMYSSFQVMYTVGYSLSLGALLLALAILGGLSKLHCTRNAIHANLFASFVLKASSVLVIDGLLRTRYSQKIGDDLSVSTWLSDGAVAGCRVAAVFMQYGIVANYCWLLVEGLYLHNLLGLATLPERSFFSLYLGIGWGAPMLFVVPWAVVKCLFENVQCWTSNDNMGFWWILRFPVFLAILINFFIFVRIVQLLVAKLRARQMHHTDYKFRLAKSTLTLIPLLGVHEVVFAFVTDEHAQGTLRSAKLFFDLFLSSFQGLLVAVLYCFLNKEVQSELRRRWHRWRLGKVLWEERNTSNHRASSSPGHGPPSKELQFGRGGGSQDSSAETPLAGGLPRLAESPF

Consider `CCCCCCCCCCCCCCCCCC(=O)NCCOCCOCC(=O)NCCOCCOCC(=O)NCCOCCOCC(=O)NCCCC[C@H](NC(=O)[C@H](C)NC(=O)[C@H](C)NC(=O)[C@H](CCC(=O)O)NC(=O)CNC(=O)[C@H](CCC(=O)O)NC(=O)[C@H](CC(C)C)NC(=O)[C@](C)(Cc1ccccc1)NC(=O)[C@H](CO)NC(=O)[C@](C)(CO)NC(=O)[C@@H](NC(=O)[C@H](CC(=O)O)NC(=O)[C@H](CO)NC(=O)[C@@H](NC(=O)[C@](C)(Cc1ccccc1)NC(=O)[C@H](CO)NC(=O)CNC(=O)[C@H](CCC(=O)O)NC(=O)C(C)(C)NC(=O)[C@@H](N)Cc1c[nH]cn1)[C@@H](C)O)C(C)C)C(=O)N[C@@H](CCC(=O)O)C(=O)N[C@@](C)(Cc1ccccc1)C(=O)N[C@H](C(=O)N[C@@H](C)C(=O)N[C@@](C)(Cc1ccccc1)C(=O)N[C@H](C(=O)N[C@H](C(=O)N[C@@H](CCCCN)C(=O)NCC(=O)NCC(N)=O)C(C)C)C(C)C)[C@@H](C)CC` [compound 56], for which the EC50 in test [1] (setting [4]) is 2.9 pM; in test [1] (setting [5]), 3.2 pM; in test [1] (setting [6]) it was 3.5 pM; in test [2] (setting [7]), at least 26 nM; in test [2] (setting [8]), at least 26 nM; at GLP-1R (INS1e cells) (setting [9]), 56 pM. The EC50 was 35.2 pM on GLP-1R (INS1e cells) (setting [10]), 77 pM at GLP-1R (INS1e cells) (setting [11]) and at least 26 nM in test [3] (setting [8]).

In the case of `CC[C@H](C)[C@H](NC(=O)[C@](C)(Cc1ccccc1)NC(=O)[C@H](CCC(=O)O)NC(=O)[C@](C)(CCCCN)NC(=O)[C@H](C)NC(=O)[C@H](C)NC(=O)[C@H](CCC(=O)O)NC(=O)CNC(=O)[C@H](CCC(=O)O)NC(=O)[C@H](CC(C)C)NC(=O)[C@](C)(Cc1ccccc1)NC(=O)[C@H](CO)NC(=O)[C@](C)(CO)NC(=O)[C@@H](NC(=O)[C@H](CC(=O)O)NC(=O)[C@H](CO)NC(=O)[C@@H](NC(=O)[C@](C)(Cc1ccccc1)NC(=O)[C@H](CO)NC(=O)CNC(=O)[C@H](CCC(=O)O)NC(=O)C(C)(C)NC(=O)[C@@H](N)Cc1c[nH]cn1)[C@@H](C)O)C(C)C)C(=O)N[C@@H](C)C(=O)N[C@@](C)(Cc1ccccc1)C(=O)N[C@H](C(=O)N[C@H](C(=O)N[C@@H](CCCCNC(=O)COCCOCCNC(=O)COCCOCCNC(=O)COCCOCCNC(=O)CCCCCCCCCCCCCCCCC(=O)O)C(=O)NCC(=O)NCC(N)=O)C(C)C)C(C)C` [compound 199], the EC50 in test [1] (mean of n1 and n2, read-out: Mean pM GLP-1R) is 18.3 pM; in test [1] (replicate n1, read-out: Primary assay EC50 GLP-1R n1), 29 pM; in test [1] (replicate n2, read-out: Primary assay EC50 GLP-1R n2), 7.5 pM; in test [2] (first replicate), at least 25 nM; in test [2] (second replicate (n2)), at least 25 nM; at GLP-1R (INS1e cells) (setting [9]), 1460 pM. The EC50 is 787 pM on GLP-1R (INS1e cells) (setting [10]), 2130 pM on GLP-1R (INS1e cells) (setting [11]) and at least 25 nM in test [3] (second replicate (n2)).

With `CC[C@H](C)[C@H](NC(=O)[C@](C)(Cc1ccccc1)NC(=O)[C@H](CCC(=O)O)NC(=O)[C@](C)(CCCCN)NC(=O)[C@H](C)NC(=O)[C@H](C)NC(=O)[C@H](CCC(=O)O)NC(=O)CNC(=O)[C@H](CCC(=O)O)NC(=O)[C@H](CC(C)C)NC(=O)[C@](C)(Cc1ccccc1)NC(=O)[C@H](CO)NC(=O)[C@](C)(CO)NC(=O)[C@@H](NC(=O)[C@H](CC(=O)O)NC(=O)[C@H](CO)NC(=O)[C@@H](NC(=O)[C@](C)(Cc1ccccc1)NC(=O)[C@H](CO)NC(=O)CNC(=O)[C@H](CCC(=O)O)NC(=O)C(C)(C)NC(=O)[C@@H](N)Cc1c[nH]cn1)[C@@H](C)O)C(C)C)C(=O)N[C@@H](C)C(=O)N[C@@](C)(Cc1ccccc1)C(=O)N[C@H](C(=O)N[C@@H](CCCCNC(=O)COCCOCCNC(=O)COCCOCCNC(=O)CC[C@H](NC(=O)CCCCCCCCCCCCCCCCC(=O)O)C(=O)O)C(=O)N[C@@](C)(CCCCN)C(=O)NCC(=O)NCC(N)=O)C(C)C` [compound 102] (H-H[Aib]EGS[αMeF]TSDV[αMeS]S[αMeF]LEGEAA[αMeK]E[αMeF]IA[αMeF]VK([AEEA-AEEA-γGlu-C18 diacid])[αMeK]GG-NH2), the EC50 is 24 pM in test [1] (setting [4]); 22 pM in test [1] (setting [5]); 20.6 pM in test [1] (setting [6]); at least 25 nM in test [2] (setting [7]); at least 25.2 nM in test [2] (setting [8]); 3560 pM at GLP-1R (INS1e cells) (setting [9]). Further, the figures for the EC50 (on GLP-1R (INS1e cells) (setting [10]); on GLP-1R (INS1e cells) (setting [11]); in test [3] (setting [8])) were 4220 pM, 2890 pM and at least 25.2 nM, respectively.

Turning to `CC[C@H](C)[C@H](NC(=O)[C@](C)(Cc1ccccc1)NC(=O)[C@H](CCC(=O)O)NC(=O)[C@H](CCCCNC(=O)COCCOCCNC(=O)COCCOCCNC(=O)CC[C@H](NC(=O)CCCCCCCCCCCCCCCCC(=O)O)C(=O)O)NC(=O)[C@H](C)NC(=O)[C@H](C)NC(=O)[C@H](CCC(=O)O)NC(=O)CNC(=O)[C@H](CCC(=O)O)NC(=O)[C@H](CC(C)C)NC(=O)[C@](C)(Cc1ccccc1)NC(=O)[C@H](CO)NC(=O)[C@H](CO)NC(=O)[C@@H](NC(=O)[C@H](CC(=O)O)NC(=O)[C@H](CO)NC(=O)[C@@H](NC(=O)[C@](C)(Cc1ccccc1)NC(=O)[C@H](CO)NC(=O)CNC(=O)[C@H](CCC(=O)O)NC(=O)C(C)(C)NC(=O)[C@@H](N)Cc1c[nH]cn1)[C@@H](C)O)C(C)C)C(=O)N[C@@H](C)C(=O)N[C@@](C)(Cc1ccccc1)C(=O)N[C@H](C(=O)N[C@H](C(=O)N[C@@](C)(CCCCN)C(=O)NCC(=O)NCC(N)=O)C(C)C)C(C)C` [compound 46], the EC50 was 920 pM in test [1] (setting [4]); 1560 pM in test [1] (setting [5]); 2200 pM in test [1] (setting [6]); at least 26 nM in test [2] (setting [7]); at least 26 nM in test [2] (setting [8]); 68000 pM at GLP-1R (INS1e cells) (setting [9]). For the same molecule, the figures for the EC50 (on GLP-1R (INS1e cells) (setting [10]); at GLP-1R (INS1e cells) (setting [11]); in test [3] (setting [8])) were 52600 pM, 83400 pM and at least 26 nM, respectively.

As to `CC[C@H](C)[C@H](NC(=O)[C@](C)(Cc1ccccc1)NC(=O)[C@H](CCC(=O)O)NC(=O)[C@H](CCCCNC(=O)COCCOCCNC(=O)COCCOCCNC(=O)CC[C@H](NC(=O)CCCCCCCCCCCCCCCCC(=O)O)C(=O)O)NC(=O)[C@H](C)NC(=O)[C@H](C)NC(=O)[C@H](CCC(=O)O)NC(=O)CNC(=O)[C@H](CCC(=O)O)NC(=O)[C@H](CC(C)C)NC(=O)[C@H](Cc1ccc(O)cc1)NC(=O)[C@H](CO)NC(=O)[C@](C)(CO)NC(=O)[C@@H](NC(=O)[C@H](CC(=O)O)NC(=O)[C@H](CO)NC(=O)[C@@H](NC(=O)[C@](C)(Cc1ccccc1)NC(=O)[C@H](CO)NC(=O)CNC(=O)[C@H](CCC(=O)O)NC(=O)C(C)(C)NC(=O)[C@@H](N)Cc1c[nH]cn1)[C@@H](C)O)C(C)C)C(=O)N[C@@H](C)C(=O)N[C@@](C)(Cc1ccccc1)C(=O)N[C@H](C(=O)N[C@H](C(=O)N[C@@](C)(CCCCN)C(=O)NCC(=O)NCC(N)=O)C(C)C)C(C)C` [compound 47] (H-H[Aib]EGS[αMeF]TSDV[αMeS]SYLEGEAAK([AEEA-AEEA-γGlu-C18 diacid])E[αMeF]IA[αMeF]VV[αMeK]GG-NH2; N-terminus assumed), the EC50 in test [1] (setting [4]) is 37 pM; in test [1] (setting [5]), 43.3 pM; in test [1] (setting [6]), 50 pM; in test [2] (setting [7]), at least 25 nM; in test [2] (setting [8]), at least 25 nM; on GLP-1R (INS1e cells) (setting [9]) it was 9670 pM. The EC50 is 7130 pM on GLP-1R (INS1e cells) (setting [10]), 12200 pM at GLP-1R (INS1e cells) (setting [11]) and at least 25 nM in test [3] (setting [8]).
